Legend:
Format in all cases: physicochemical
[1] = Effect of counterion on colloidal stability of SERRS-nanoprobes; settings: 10 μM dye
Method: Effect of counterion on colloidal stability and SERRS-signal. […] Since SERRS is highly dependent on these factors, we evaluated the effect of the counterion (Z^−) on the SERRS spectrum, intensity, and colloidal stability of the pyrylium-based SERRS-nanoprobes. We compared chloride (Cl^−), bromide (Br^−), perchlorate (ClO4^−), and hexafluorophosphate (PF6^−) as counterions for chalcogenopyrylium dye 1a. The SERRS-nanoprobes were synthesized in the presence of equimolar amounts (10 μM) of CP dye 1a.Z^− (where Z^−═Cl^−, Br^−, ClO4^−, or PF6^−). The counterion introduces almost no difference in optical properties (e.g. absorption maxima, extinction coefficient). Furthermore, with the exception of the chloride counter-ion, the Raman shifts and intensity of 1a were minimally affected by the different counterions (FIG. 17 B). […] Since the PF6^− anion induced the least nanoparticle aggregation, it was used for further SERRS experiments.
SERRS-nanoprobe characterization. […] The size and concentration of the SERRS-nanoprobes were determined on a Nanoparticle Tracking Analyzer (NTA; Malvern Instruments, Malvern, UK). Absorption spectra to determine possible nanoparticle aggregation (typically detectable at wavelengths >600 nm) were measured on an M1000Pro spectrophotometer (Tecan Systems Inc. San Jose, Calif.). […]

[2] = UV/VIS-near-IR absorption of the dyes; settings: for ε (CH2Cl2): molar extinction coefficient in CH2Cl2
Method: Synthetic Methods. All reactions were performed open to air unless otherwise noted. Concentration in vacuo was performed on a rotary evaporator. NMR spectra were recorded at 300 or 500 MHz for ^1H and at 75.5 MHz for ^13C with residual solvent signal as internal standard. UV/VIS-near-IR spectra were recorded in quartz cuvettes with a 1-cm path length. Melting points were determined with a capillary melting point apparatus and are uncorrected. […] Pyranones 16b-16d are known compounds (J. Heterocycl. Chem. 1999, 36, 707-717). The synthesis of thiopyranone 16a and 4-methylpyrylium salt 15c is shown in Scheme 2. 4-Methylpyrylium salts 15a, 15d, and 15e have been reported previously in the literature (J. Org. Chem. 1982, 47, 5235-5239; Organometallics 1988, 7, 1131-1147; Dyes Pigm. 2000, 45, 1-7).

[3] = Fluorescence of dyes incorporated in silica without gold nanoparticle; settings: dye in silica without gold nanoparticle, excited at 785-nm, 50 μW/cm^2, 1.0 s
From the text: Comparison of CP-dye 3 with a cyanine-based SERRS-reporter. In order to assess the quality of our optimized nanoprobe, thiopyrylium dye 3 and commercially available IR792 (FIG. 19 A), which has been previously used to generate surface-enhanced resonance Raman scattering nanoprobes, were studied. […] It is interesting to note that a fluorescence background is minimal in the SERRS spectra of the CP- and cyanine-based SERRS-nanoprobes. Whereas fluorescence interference would not be expected from chalcogenopyrylium dyes containing heavy chalcogens that enhance intersystem crossing, fluorescence interference could be expected for the cyanine dye IR792. […] This is due to quenching effects near the surface of the nanoparticle.

Structure (SMILES) | λmax (CH2Cl2) ([2]; absorption maximum in CH2Cl2) | ε (CH2Cl2) [2] | further results
C(=Cc1cc(-c2ccccc2)[se+]c(-c2ccccc2)c1)C=C1C=C(c2ccccc2)[Se]C(c2ccccc2)=C1.F[P-](F)(F)(F)(F)F [Dye 1a, 4-(3-(2,6-diphenyl-4H-selenopyran-4-ylidene)prop-1-enyl)-2,6-diphenylselenopyrylium hexafluorophosphate] |  |  | colloidal stability of SERRS-nanoprobes ([1]; counterion Cl^−): strongly destabilized the gold colloids and caused aggregation; colloidal stability of SERRS-nanoprobes ([1]; counterion PF6^−): did not affect colloidal stability; Log (ε) ([2]; Table 2, Example 2 dyes): 5.40; λmax (CH2Cl2) ([2]; Table 2, Example 2 dyes, CH2Cl2): 806 nm
C1=C(/C=C/C=C2\C=C(c3ccccc3)[Se]c3ccccc32)C=C(c2ccccc2)[SH]=C1c1ccccc1 [Dye 16, 4-(3-(2,6-diphenyl-4H-thiopyran-4-ylidene)prop-1-enyl)-2-phenylselenobenzopyrylium hexafluorophosphate] | 748 nm | 61000 M⁻¹ cm⁻¹ | 
C1=C(c2cccs2)[Se]c2ccccc2/C1=C/C1=CC(c2cccs2)=[SeH]c2ccccc21 [Dye 17, 2-(thiophene-2-yl)-4-((2-(thiophen-2-yl)-4H selenobenzopyran-4-ylidene)methyl)selenobenzopyrylium hexafluorophosphate] | 786 nm | 78000 M⁻¹ cm⁻¹ | 
C(/C=C/C=C/c1cc(-c2cccs2)[s+]c(-c2cccs2)c1)=C1C=C(c2cccs2)SC(c2cccs2)=C1 [Dye 18, 4-((1E,3E)-5-(2,6-di(thiophen-2-yl)-4H-thiopyran-4-ylidene)penta-1,3-dien-1-yl)-2,6-di(thiophen-2-yl)thiopyrylium] | 943 nm |  | 
C(/C=C/C=C/c1cc(-c2ccc[se]2)[se+]c(-c2ccc[se]2)c1)=C1C=C(c2ccc[se]2)[Se]C(c2ccc[se]2)=C1 [Dye 19, 4-((1E,3E)-5-(2,6-di(selenophen-2-yl)-4H-selenopyran-4-ylidene)penta-1,3-dien-1-yl)-2,6-di(selenophen-2-yl)selenopyrylium] | 1001 nm |  | 
ClC1=C(/C=C/c2cc(-c3ccccc3)[s+]c(-c3ccccc3)c2)CCC/C1=C\C=C1C=C(c2ccccc2)SC(c2ccccc2)=C1 [Dye 20, 4-((E)-2-((E)-2-chloro-3-(2-(2,6-diphenyl-4H-thiopyran-4-ylidene)ethylidene)cyclohex-1-en-1-yl)vinyl)-2,6-diphenylthiopyrylium hexafluorophosphate] | 1042 nm | 100000 M⁻¹ cm⁻¹ | 
ClC1=C(/C=C/c2cc(-c3cccs3)[s+]c(-c3cccs3)c2)CCC/C1=C\C=C1C=C(c2cccs2)SC(c2cccs2)=C1 [Dye 21, 4-((E)-2-((E)-2-chloro-3-(2-(2,6-di(thiophen-2-yl)-4H-thiopyran-4-ylidene)ethylidene)-cyclohex-1-en-1-yl)vinyl)-2,6-di(thiophen-2-yl)thiopyrylium hexafluorophosphate] | 1119 nm |  | 
CCCN1/C(=C\C=C2/CCCC(/C=C/C3=[N+](CCC)c4ccccc4C3(C)C)=C2Sc2ccccc2)C(C)(C)c2ccccc21 [IR792] |  |  | fluorescence [3]: strong fluorescence

Reference: patent US20170276611A1, “CHALCOGENOPYRYLIUM DYES, COMPOSITIONS COMPRISING SAME, COMPOSITE NANOPARTICLES COMPRISING SAME, AND METHODS OF MAKING AND USING THE SAME” (The Research Foundation for The State University of New York, priority 2014, published 2017)
